Measured values taken from patent publication US8901138B2, “Sulfoximine substituted quinazolines for pharmaceutical compositions” (Boehringer Ingelheim International GmbH, priority 2012, dated 2014).

Columns and labels:
[1] = system: phosphorylated elF4E; details: cell culture cells transfected with MNK2 (MNK2a or MNK2b) or MNK1; cited from earlier work
[2] = target: MNK1a (Homo sapiens, UniProt Q9BUB5); assay: MNK1 in vitro kinase assay (assay 2), Z'-LYTE; format: biochemical; details: for inhibition at 1 µM: compound concentration of 1 μM; for IC50: pre-activated GST-MNK1a
Outline: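 Pre-activated GST-MNK1a (13.5-54 ng) with 2 μM Ser/Thr 07 FRET peptide in 50 mM HEPES pH 7.5, 10 mM MgCl2, 2 mM MnCl2, 1 mM EGTA, 1 mM DTT, 1% DMSO; 1 h kinase then 1 h development at room temperature. Coumarin/fluorescein emission ratio gives % phosphorylation; sigmoidal dose-response fit.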

[3] = target: T1, MNK2a (Homo sapiens, UniProt Q9HBH9); assay: MNK2a in vitro kinase assay (assay 1), ADP-Glo; format: biochemical; details: preactivated GST-MNK2a, 20 μM ATP, read-out: MNK2 IC50
T1 construct: made in house
Outline: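 Preactivated GST-MNK2a (10 nM) with eIF4E peptide (25 μM) and ATP (20 μM) in HEPES/DTT/MgCl2 buffer, 90 min at room temperature, final DMSO <3%. ADP formed read by ADP-Glo luminescence and normalised to vehicle and 20 μM reference-inhibitor controls; IC50 from dose-response curves.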

MNK1a, sequence (Q9BUB5 1-424 isoform Q9BUB5-2): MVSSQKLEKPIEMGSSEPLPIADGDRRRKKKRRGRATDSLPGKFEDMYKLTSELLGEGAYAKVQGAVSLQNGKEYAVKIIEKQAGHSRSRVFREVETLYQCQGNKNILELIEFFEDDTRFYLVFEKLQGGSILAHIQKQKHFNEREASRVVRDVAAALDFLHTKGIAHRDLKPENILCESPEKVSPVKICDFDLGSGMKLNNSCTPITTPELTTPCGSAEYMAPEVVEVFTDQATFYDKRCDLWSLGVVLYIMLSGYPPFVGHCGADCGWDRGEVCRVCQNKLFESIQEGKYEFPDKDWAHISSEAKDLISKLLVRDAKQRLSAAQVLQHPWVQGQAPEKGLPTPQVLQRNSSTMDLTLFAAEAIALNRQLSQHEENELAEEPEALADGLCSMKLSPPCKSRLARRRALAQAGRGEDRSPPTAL
T1 sequence (Q9HBH9 whole entry): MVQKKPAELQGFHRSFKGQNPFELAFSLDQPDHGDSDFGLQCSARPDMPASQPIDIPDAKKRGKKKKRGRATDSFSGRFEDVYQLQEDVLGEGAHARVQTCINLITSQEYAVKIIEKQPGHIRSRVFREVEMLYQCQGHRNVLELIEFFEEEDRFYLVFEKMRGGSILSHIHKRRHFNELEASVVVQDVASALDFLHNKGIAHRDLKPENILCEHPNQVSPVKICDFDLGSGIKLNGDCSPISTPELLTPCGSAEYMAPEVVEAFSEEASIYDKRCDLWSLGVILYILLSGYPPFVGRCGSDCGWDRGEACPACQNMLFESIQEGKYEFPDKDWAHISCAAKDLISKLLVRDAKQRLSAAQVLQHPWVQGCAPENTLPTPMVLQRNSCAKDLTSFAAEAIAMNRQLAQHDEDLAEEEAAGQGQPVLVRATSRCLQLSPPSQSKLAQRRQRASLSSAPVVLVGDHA

**Q.** Which “reduction of phosphorylated elF4E” value [1] does the source give for `Nc1ncnc2n[nH]c(Nc3ccc(F)cc3)c12` [CGP57380] here?
**A.** strong reduction

**Q.** Which inhibition at 1 µM [2] does the source give for `CO[C@@H]1CCC[C@H]1Oc1cc(F)ccc1Nc1ncnc2cc(N=S(C)(C)=O)cc(C)c12` [Example 1.36] here?
**A.** 84%

**Q.** And the IC50 [3]?
**A.** 2 nM

**Q.** With `Cc1cc(N=S(C)(C)=O)cc2ncnc(Nc3ccc(F)cc3O[C@@H]3CCN(CCO)C3)c12` [Example 6.17] as the compound, how does the inhibition at 1 µM [2] read?
**A.** 79%

**Q.** And the IC50 [3]?
**A.** 23 nM

**Q.** Which inhibition at 1 µM [2] does the source give for `Cc1cc(N=S2(=O)CCCC2)cc2ncnc(Nc3ccc(F)cc3O[C@@H]3CO[C@H]4[C@@H]3OC[C@@H]4F)c12` [Example 2.117] here?
**A.** 101%

**Q.** What about the IC50 [3] of the same compound?
**A.** 1 nM

**Q.** Which results are given for `Cc1cc(N=S(C)(=O)C2CC2)cc2ncnc(Nc3ccc(F)cc3O[C@H]3CCOC3)c12` (stereo partly shown) [Example 2.103]?
**A.** IC50 [2]: 82 nM; IC50 [3]: 7 nM

**Q.** Which results are given for `CS(C)(=O)=Nc1cc(SCF)c2c(Nc3ccc(F)cc3O[C@H]3CCOC3)ncnc2c1` [Example 7.11]?
**A.** inhibition at 1 µM [2]: 98%; IC50 [3]: 5 nM

**Q.** Which inhibition at 1 µM [2] does the source give for `Cc1cc(N=S2(=O)CCCC2)cc2ncnc(Nc3ccc(F)cc3O[C@@H]3CCCN(CCO)C3)c12` [Example 6.7] here?
**A.** 100%

**Q.** What about the IC50 [3] of the same compound?
**A.** 2 nM

**Q.** Which results are given for `Cc1cc(N=S(C)(=O)C(C)(C)C#N)cc2ncnc(Nc3ccc(F)cc3O[C@H]3CCOC3)c12` (stereo partly shown) [Example 2.111]?
**A.** inhibition at 1 µM [2]: 89%; IC50 [3]: 5 nM

**Q.** Which results are given for `CS(C)(=O)=Nc1cc(Cl)c2c(Nc3ccc(F)cc3O[C@H]3CC[C@H](O)CC3)ncnc2c1` [Example 1.17]?
**A.** IC50 [2]: 39 nM; IC50 [3]: 2 nM

**Q.** What does the source list for `Cc1cc(N=S2(=O)CCCC2)cc2ncnc(Nc3ccc(F)cc3O[C@@H]3CCN(S(C)(=O)=O)C3)c12` [Example 6.18]?
**A.** inhibition at 1 µM [2]: 98%; IC50 [3]: 1 nM

**Q.** Which inhibition at 1 µM [2] does the source give for `Cc1cc(N=S(C)(=O)C2CCOCC2)cc2ncnc(Nc3ccc(F)cc3O[C@@H]3CO[C@@H]4CCO[C@@H]43)c12` (stereo partly shown) [Example 2.99] here?
**A.** 96%

**Q.** What about the IC50 [3] of the same compound?
**A.** 5 nM

**Q.** Which inhibition at 1 µM [2] does the source give for `Cc1cc(N=[S@@](C)(=O)c2ccccc2)cc2ncnc(Nc3ccc(F)cc3O[C@H]3CCOC3)c12` [Example 2.64] here?
**A.** 87%

**Q.** And the IC50 [3]?
**A.** 3 nM

**Q.** With `Cc1cc(N=S(C)(C)=O)cc2ncnc(Nc3ccc(F)cc3O[C@@H]3CCCC[C@H]3F)c12` [Example 7.17] as the compound, how does the inhibition at 1 µM [2] read?
**A.** 96%

**Q.** And the IC50 [3]?
**A.** 1 nM

**Q.** With `Cc1cc(N=S(C)(C)=O)cc2ncnc(Nc3ccc(F)cc3O[C@H]3C[C@H](N(C)C)C3)c12` [Example 7.15] as the compound, how does the inhibition at 1 µM [2] read?
**A.** 92%

**Q.** What about the IC50 [3] of the same compound?
**A.** 10 nM

**Q.** Which results are given for `COCCS(C)(=O)=Nc1cc(C)c2c(Nc3ccc(F)cc3O[C@H]3CC[C@H](OC)CC3)ncnc2c1` (stereo partly shown) [Example 2.87]?
**A.** inhibition at 1 µM [2]: 79%; IC50 [3]: 7 nM

**Q.** Which inhibition at 1 µM [2] does the source give for `CCO[C@@H]1CO[C@H]2[C@@H]1OC[C@H]2Oc1cc(F)ccc1Nc1ncnc2cc(N=S(C)(C)=O)cc(C)c12` [Example 2.7] here?
**A.** 98%

**Q.** And the IC50 [3]?
**A.** 1 nM

**Q.** With `CS(C)(=O)=Nc1cc(F)c2c(Nc3ccc(F)cc3O[C@@H]3CCN(CC(F)F)C3)ncnc2c1` [Example 6.16] as the compound, how does the inhibition at 1 µM [2] read?
**A.** 90%

**Q.** What about the IC50 [3] of the same compound?
**A.** 7 nM

**Q.** Which inhibition at 1 µM [2] does the source give for `CCS(=O)(CC)=Nc1cc(C)c2c(Nc3ccc(F)cc3O[C@H]3CC[C@H](OC)CC3)ncnc2c1` [Example 2.12] here?
**A.** 24%

**Q.** What about the IC50 [3] of the same compound?
**A.** 13 nM

**Q.** What does the source list for `Cc1cc(N=S(C)(C)=O)cc2ncnc(Nc3ccc(F)cc3OC3CC(O)C3(C)C)c12` (stereo not shown) [Example 1.35]?
**A.** inhibition at 1 µM [2]: 85%; IC50 [3]: 5 nM
